Source: patent US9850206B2, “S1P and/or ATX modulating agents” (BIOGEN MA INC., priority 2012, dated 2017)
Read-outs that look alike come from different tables or passages of the source.

Assays:
Human ATX protein = target: T1, Human ATX protein (Homo sapiens, UniProt Q13822); experiment: Autotaxin (ATX) FRET assay with FS-3 substrate; assay type: biochemical
T1 construct: made in house
Text: ATX (Autotaxin) is a 125 KDa glycoprotein with lysophospholipase D (LPLD) activity that generates the bioactive lipid lysophosphatidic acid (LPA) from lysophosphatidylcholine (LPC). The ATX biochemical assay utilizes a FRET (fluorescence resonance energy transfer) technology platform. […] ATX catalyzes the hydrolysis of the substrate which separates the dabsyl quencher from the fluorescein reporter, which becomes fluorescent. The reaction is monitored by a SpectraMax M5 (Molecular Devices, Sunnyvale, Calif.) with at excitation wavelength 485 nm and emission wavelength 535 nm.
Fatty acid free-BSA (Sigma A8806): 10 mg/mL in H2O, stored at 4° C.
2×ATX assay buffer: 100 mM Tris, 280 mM NaCl, 10 mM KCl, 2 mM CaCl2, 2 mM MgCl2, pH 7.4.
Human ATX protein: expressed and purified in house. Stored at −80° C.
Substrate FS-3 (Echelon, L-2000): 100 μg in 77.74 μL H2O (1 mM stock), stored at −20° C.
Compound dilution—All compounds were provided at 10 mM in 100% DMSO. In the first well, 2 μL of 10 mM compound was added to 78 μL of DMSO (1:40 dilution). In subsequent wells 3-fold dilution (total 10 dilutions) were performed.
1×ATX assay buffer was made up with a final concentration of 1 mg/mL fatty acid free-BSA using 2×ATX assay buffer, 10 mg/ml fatty acid free-BSA and ddH2O.
38 μL was added per well to the assay plate. The final concentration of ATX in the reaction as 1.0 μg/mL.
2 μL per well of compounds was transferred to provide the desired concentration. The plate was centrifuged, then incubated at room temperature for 30 minutes on the shaker.
FS-3 was diluted with 1×ATX assay buffer to a concentration of FS-3 of 10 μM (5×). Then, 10 μL was added per well to the assay plate. The final concentration of FS-3 in the reaction was 2 μM. The plate was centrifuged. The plate was kept shaking at room temperature for 2 hours. Because FS-3 substrate is light sensitive, plates were kept covered and protected from light.

S1P1 = S1P1 (Homo sapiens, UniProt P21453); experiment: S1P receptor activity assay (calcium flux, FLIPR TETRA), S1P1; assay type: cell-based
Chain of S1P1 (P21453 whole entry): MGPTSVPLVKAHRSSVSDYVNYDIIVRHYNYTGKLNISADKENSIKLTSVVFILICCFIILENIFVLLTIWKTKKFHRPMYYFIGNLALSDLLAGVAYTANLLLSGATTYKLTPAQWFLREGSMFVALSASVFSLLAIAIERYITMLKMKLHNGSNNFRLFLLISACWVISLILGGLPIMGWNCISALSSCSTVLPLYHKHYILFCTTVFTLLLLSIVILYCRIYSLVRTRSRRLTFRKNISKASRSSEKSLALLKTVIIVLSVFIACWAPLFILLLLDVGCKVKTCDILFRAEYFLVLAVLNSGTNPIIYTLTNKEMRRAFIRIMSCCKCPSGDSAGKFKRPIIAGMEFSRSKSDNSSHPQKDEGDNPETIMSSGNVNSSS
Text: (§1) Agonist percentage activation determinations were obtained by assaying sample compounds and referencing the Emax control for each receptor profiled. Antagonist percentage inhibition determinations were obtained by assaying sample compounds and referencing the control EC80 wells for each receptor profiled. The samples were run using a “Single Addition” assay protocol for the agonist and antagonist assay run. The protocol design was as follows:
(§2) Master stock solution: Unless specified otherwise, all sample compounds were diluted in 100% anhydrous DMSO including all serial dilutions. All control wells contained identical solvent final concentrations as did the sample compound wells.
(§3) Compound plate for assay: The sample compounds were transferred from a master stock solution into a daughter plate that was used in the assay. Each sample compound was diluted into assay buffer (1×HBSS with 20 mM HEPES and 2.5 mM Probenecid) at an appropriate concentration to obtain final concentrations.
(§4) Sample compounds were plated in an eight-point, four-fold dilution series in duplicate with a top concentration of 10 μM. The concentrations described here reflect the final concentration of the compounds during the antagonist assay.
(§5) Reference agonists were handled as mentioned above serving as assay control. The reference agonists were handled as described above for Emax.
(§6) Assay was read for 180 seconds using the […] (This assay run added sample compounds and reference agonist to respective wells). At the completion of the first “Single Addition” assay run, assay plate was removed from the […] and placed at 25° C. for seven (7) minutes.
(§7) Using the EC80 values determined during the agonist assay, stimulated all pre-incubated sample compound and reference antagonist (if applicable) wells with EC80 of reference agonist. Read for 180 seconds using the […] (This assay added reference agonist to respective wells—then fluorescence measurements were collected to calculate percentage inhibition values).
(§8) All plates were subjected to appropriate baseline corrections. Once baseline corrections were processed, maximum fluorescence values were exported and data manipulated to calculate percentage activation, percentage inhibition and Z′.

S1P4 = target: T2, S1P4 (Homo sapiens, UniProt O95977); experiment: S1P receptor activity assay (calcium flux, FLIPR TETRA), S1P4; assay type: cell-based
T2 sequence (O95977 1-384): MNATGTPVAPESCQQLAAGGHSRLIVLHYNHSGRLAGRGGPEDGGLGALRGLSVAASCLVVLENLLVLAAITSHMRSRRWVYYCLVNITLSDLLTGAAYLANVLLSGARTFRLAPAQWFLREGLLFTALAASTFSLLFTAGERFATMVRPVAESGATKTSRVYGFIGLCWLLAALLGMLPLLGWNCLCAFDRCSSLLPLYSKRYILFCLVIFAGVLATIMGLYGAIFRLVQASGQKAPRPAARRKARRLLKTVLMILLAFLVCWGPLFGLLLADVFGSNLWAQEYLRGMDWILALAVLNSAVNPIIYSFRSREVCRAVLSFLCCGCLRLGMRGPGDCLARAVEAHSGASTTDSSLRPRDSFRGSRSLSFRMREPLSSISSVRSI
Text: as §1, §2, §3, §4, §5, §6, §7, §8

S1P5 = S1P5 (Homo sapiens, UniProt Q9H228); experiment: S1P receptor activity assay (calcium flux, FLIPR TETRA), S1P5; assay type: cell-based
Chain of S1P5 (Q9H228 whole entry): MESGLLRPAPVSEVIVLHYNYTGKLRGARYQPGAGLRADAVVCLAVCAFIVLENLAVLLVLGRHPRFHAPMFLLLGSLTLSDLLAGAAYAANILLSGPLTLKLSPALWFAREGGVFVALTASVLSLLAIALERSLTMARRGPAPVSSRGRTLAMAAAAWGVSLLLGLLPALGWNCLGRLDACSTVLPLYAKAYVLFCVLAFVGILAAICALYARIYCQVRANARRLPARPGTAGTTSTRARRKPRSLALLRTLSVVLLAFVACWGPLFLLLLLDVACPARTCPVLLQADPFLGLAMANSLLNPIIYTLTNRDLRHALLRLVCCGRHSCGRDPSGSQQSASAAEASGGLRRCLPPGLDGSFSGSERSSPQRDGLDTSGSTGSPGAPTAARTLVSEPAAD
Text: as §1, §2, §3, §4, §5, §6, §7, §8

[1] = FS-3 2 μM, ATX 1.0 μg/mL, 2 hours at room temperature, read-out: IC50 (ATX)
[2] = calcium flux, top concentration 10 μM, the >5 μM sentence says only 'for S1P1', read-out: IC50 for S1P1 agonist activity
[3] = calcium flux, top concentration 10 μM, the >5 μM sentence says only 'for S1P4', read-out: IC50 for S1P4 agonist activity
[4] = calcium flux, top concentration 10 μM, read-out: IC50 for S1P5

Compound | IC50 (Human ATX protein; [1]) [µM] | IC50 (S1P1; [2]) [µM] | IC50 (S1P4; [3]) [µM] | IC50 (S1P5; [4]) [µM] | IC50 (S1P1) [µM] | IC50 (S1P4) [µM] | IC50 (Human ATX protein) [µM] | IC50 (S1P5) [µM]
CC(C)(C)[C@H]1CC[C@H](Oc2ccc(N3CCN(CC45CCC(C(=O)O)(CC4)CC5)CC3)cc2)CC1 [Example 19, 4-((4-(4-((trans-4-(tert-Butyl)cyclohexyl)oxy)phenyl)piperazin-1-yl)methyl)bicyclo[2.2.2]octane-1-carboxylic acid] | ≤ 5 | > 5 | ≤ 2 | > 5 | – | – | – | –
CC[C@H]1CC[C@H](Oc2ccc(C3=CCN(CCC(=O)O)CC3)cc2)CC1 [Example 27, 3-(4-(4-((trans-4-Ethylcyclohexyl)oxy)phenyl)-5,6-dihydropyridin-1(2H)-yl)propanoic acid] | 5 to 10 | – | – | > 5 | > 5 | > 5 | – | –
CC[C@H]1CC[C@H](Oc2ccc(C3=CCN(CCCC(=O)O)CC3)cc2)CC1 [Example 29, 4-(4-(4-((trans-4-Ethylcyclohexyl)oxy)phenyl)-5,6-dihydropyridin-1(2H)-yl)butanoic acid] | > 10 | – | – | > 5 | > 5 | ≤ 2 | – | –
CC[C@H]1CC[C@H](Oc2ccc(C3=CCN(CCCCC(=O)O)CC3)cc2)CC1 [Example 31, 5-(4-(4-((trans-4-Ethylcyclohexyl)oxy)phenyl)-5,6-dihydropyridin-1(2H)-yl)pentanoic acid] | > 10 | – | – | > 5 | > 5 | ≤ 2 | – | –
CC[C@H]1CC[C@@H](Oc2ccc(C3=CCN(CCC(=O)O)CC3)cc2)CC1 [Example 33, 3-(4-(4-((cis-4-Ethylcyclohexyl)oxy)phenyl)-5,6-dihydropyridin-1(2H)-yl)propanoic acid] | – | – | – | – | > 5 | ≤ 2 | > 10 | > 5
CC[C@H]1CC[C@@H](Oc2ccc(C3=CCN(CCCC(=O)O)CC3)cc2)CC1 [Example 35, 4-(4-(4-((cis-4-Ethylcyclohexyl)oxy)phenyl)-5,6-dihydropyridin-1(2H)-yl)butanoic acid] | > 10 | – | – | > 5 | > 5 | ≤ 2 | – | –

The next lines start with results.

IC50 (Human ATX protein; [1]) [µM] | IC50 (S1P1; [2]) [µM] | IC50 (S1P4; [3]) [µM] | IC50 (S1P5; [4]) [µM] | Compound | IC50 (S1P1) [µM] | IC50 (S1P4) [µM] | IC50 (Human ATX protein) [µM] | IC50 (S1P5) [µM]
5 to 10 | > 5 | 2 to 5 | > 5 | CCCCCCCCOc1ccc(N2CCN(CCC(=O)O)CC2)nn1 [Example 20, 3-(4-(6-(Octyloxy)pyridazin-3-yl)piperazin-1-yl)propanoic acid] | – | – | – | –
5 to 10 | > 5 | ≤ 2 | > 5 | CCCCCCCCOc1cnc(N2CCN(CCC(=O)O)CC2)nc1 [Example 21, 3-(4-(5-(Octyloxy)pyrimidin-2-yl)piperazin-1-yl)propanoic acid] | – | – | – | –
5 to 10 | > 5 | 2 to 5 | > 5 | CCCCCCCCOc1ccc(C2CCCN(C3CCC(C(=O)O)CC3)C2)cc1 (stereo not shown) [Example 26, 4-(3-(4-(Octyloxy)phenyl)piperidin-1-yl)cyclohexanecarboxylic acid] | – | – | – | –
> 10 | > 5 | > 5 | > 5 | CC[C@H]1CC[C@H](Oc2ccc(C3CCN(CCC(=O)O)CC3)cc2)CC1 [Example 28, 3-(4-(4-((trans-4-ethylcyclohexyl)oxy)phenyl)piperidin-1-yl)propanoic acid] | – | – | – | –
> 10 | > 5 | ≤ 2 | > 5 | CC[C@H]1CC[C@H](Oc2ccc(C3CCN(CCCC(=O)O)CC3)cc2)CC1 [Example 30, 4-(4-(4-((trans-4-Ethylcyclohexyl)oxy)phenyl)piperidin-1-yl)butanoic acid] | – | – | – | –
≤ 5 | > 5 | > 5 | > 5 | CC[C@H]1CC[C@H](Oc2ccc(C3CCN(CCCCC(=O)O)CC3)cc2)CC1 [Example 32, 5-(4-(4-((trans-4-Ethylcyclohexyl)oxy)phenyl)piperidin-1-yl)pentanoic acid] | – | – | – | –
> 10 | > 5 | > 5 | > 5 | CC[C@H]1CC[C@@H](Oc2ccc(C3CCN(CCC(=O)O)CC3)cc2)CC1 [Example 34, 3-(4-(4-((cis-4-Ethylcyclohexyl)oxy)phenyl)piperidin-1-yl)propanoic acid] | – | – | – | –
